Assay results published in PMC3047706 (Chemmedchem, 2010).
Counter-ions that a name gives are not always drawn.

Key:
Assay type in all cases: biochemical
[1] = target: T1, T. cruzi TryR (Trypanosoma cruzi, UniProt P28593); test: DTNB-coupled TryR microplate assay, […] nm
[2] = target: T2, human GR (Homo sapiens, UniProt P00390); test: DTNB-coupled GR microplate assay, single concentration in duplicate; conditions: read-out: % inhibition at 25 μM
T2 sequence (P00390 44-522): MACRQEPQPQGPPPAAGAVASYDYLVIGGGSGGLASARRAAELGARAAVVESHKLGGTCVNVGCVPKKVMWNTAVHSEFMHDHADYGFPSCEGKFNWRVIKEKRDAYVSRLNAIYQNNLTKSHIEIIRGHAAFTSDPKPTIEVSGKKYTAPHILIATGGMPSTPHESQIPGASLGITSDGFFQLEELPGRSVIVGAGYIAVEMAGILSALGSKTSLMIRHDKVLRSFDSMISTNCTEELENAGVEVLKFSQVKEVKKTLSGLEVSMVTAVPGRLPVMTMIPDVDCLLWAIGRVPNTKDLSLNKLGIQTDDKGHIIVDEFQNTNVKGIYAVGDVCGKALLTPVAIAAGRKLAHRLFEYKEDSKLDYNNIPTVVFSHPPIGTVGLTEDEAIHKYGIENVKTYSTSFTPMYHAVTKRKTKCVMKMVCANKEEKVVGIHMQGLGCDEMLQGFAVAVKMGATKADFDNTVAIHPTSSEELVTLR

[3] = target: T1, T. cruzi TryR; test: DTNB-coupled TryR assay, global fit of mode of inhibition

T1 sequence (P28593 whole entry): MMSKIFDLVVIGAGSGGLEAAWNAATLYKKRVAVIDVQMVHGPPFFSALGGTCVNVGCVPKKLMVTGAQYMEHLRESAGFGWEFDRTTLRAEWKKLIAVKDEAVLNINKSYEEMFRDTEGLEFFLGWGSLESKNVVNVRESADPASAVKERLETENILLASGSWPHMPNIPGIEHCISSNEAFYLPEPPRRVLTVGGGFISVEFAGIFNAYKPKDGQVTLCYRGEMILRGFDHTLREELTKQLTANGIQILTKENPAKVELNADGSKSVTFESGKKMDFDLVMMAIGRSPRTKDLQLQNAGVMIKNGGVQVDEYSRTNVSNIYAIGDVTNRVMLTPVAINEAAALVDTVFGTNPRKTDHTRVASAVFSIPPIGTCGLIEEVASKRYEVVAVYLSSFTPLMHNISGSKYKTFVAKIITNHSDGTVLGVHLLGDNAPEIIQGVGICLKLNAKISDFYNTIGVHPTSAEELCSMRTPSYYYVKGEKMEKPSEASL

Row | IC50 [1] [µM] | Ki [3] [µM] | Structure (SMILES) | inhibition at 25 µM [2] [%]
1 | 125 ± 17 | – | COc1cccc(C2CC(NCCC(C)C)c3cc(OC)ccc32)c1 (centres unmarked) [8xx] | –
2 | 8.04 ± 0.91 | – | Clc1ccc(C2CC(NCc3ccccc3)c3ccccc32)cc1Cl (centres unmarked) [8vii] | –
3 | 7.38 ± 1.21 | – | CN(C)c1ccc(CN[C@@H]2C[C@@H](c3ccc(Cl)c(Cl)c3)c3ccccc32)cc1 (relative stereo) [8xii, Trans-[3-(3,4-dichlorophenyl)indan-1-yl]-(4-dimethylaminobenzyl)amine] | –
4 | 2.23 ± 0.66 | – | COc1ccc2c(c1)[C@H](NCCC(C)C)C[C@H]2c1ccc(Cl)c(Cl)c1 (relative stereo) [8xvi, Trans-[3-(3,4-dichlorophenyl)-6-methoxyindan-1-yl]-(3-methylbutyl)amine] | –
5 | 45.9 ± 4.2 | – | Clc1ccc(CN[C@@H]2C[C@@H](c3ccc(Cl)c(Cl)c3)c3ccccc32)cc1Cl (relative stereo) [8ix, Trans-[3-(3,4-dichlorophenyl)indan-1-yl]-(3,4-dichlorobenzyl)amine] | –
6 | 32.9 ± 4.3 | – | COc1ccc2c(c1)[C@H](NCCC(C)C)C[C@H]2c1ccc(C)cc1 (relative stereo) [8xix, Trans-[3-(4-methylphenyl)-6-methoxyindan-1-yl]-(3-methylbutyl)amine] | –
7 | 13 ± 1.6 | – | Cc1ccc(CN[C@@H]2C[C@@H](c3ccc(Cl)c(Cl)c3)c3ccccc32)cc1 (relative stereo) [8x, Trans-[3-(3,4-dichlorophenyl)indan-1-yl]-(4-methylbenzyl)amine] | –
8 | > 200 | – | CC(=O)N[C@@H]1C[C@@H](c2ccc(Cl)c(Cl)c2)c2ccccc21 (relative stereo) [8xiv, Trans-N-[3-(3,4-dichlorophenyl)indan-1-yl]acetamide] | –
9 | 15.8 ± 1.6 | – | COc1ccc2c(c1)[C@H](NCCC(C)C)C[C@H]2c1ccc(Cl)cc1 (relative stereo) [8xviii, Trans-[3-(4-chlorophenyl)-6-methoxyindan-1-yl]-(3-methylbutyl)amine] | –
10 | 3.07 ± 0.45 | – | COc1ccc2c(c1)[C@@H](NCc1ccccc1)C[C@@H]2c1ccc(Cl)c(Cl)c1 (relative stereo) [8xxi, Trans-benzyl-[3-(3,4-dichlorophenyl)-6-methoxyindan-1-yl]amine] | –
11 | 173 ± 56 | – | Clc1ccc([C@@H]2C[C@@H](N3CCOCC3)c3ccccc32)cc1Cl (relative stereo) [8vi, Trans-4-[3-(3,4-dichlorophenyl)indan-1-yl]morpholine] | –
12 | – | – | CN[C@@H]1C[C@@H](c2ccc(Cl)c(Cl)c2)c2ccccc21 [compound 3, indatraline] | < 12
13 | 3.15 ± 0.23 | – | COc1ccc2c(c1)[C@H](NCCC(C)C)C[C@H]2c1ccc(Br)c(Br)c1 (relative stereo) [8xvii, Trans-[3-(3,4-dibromophenyl)-6-methoxyindan-1-yl]-(3-methylbutyl)amine] | –
14 | 4.14 ± 0.41 | – | COc1ccc(CN[C@@H]2C[C@@H](c3ccc(Cl)c(Cl)c3)c3ccccc32)cc1 (relative stereo) [8xi, Trans-[3-(3,4-dichlorophenyl)indan-1-yl]-(4-methoxybenzyl)amine] | –
15 | > 200 | – | Cc1ccc(S(=O)(=O)N[C@@H]2C[C@@H](c3ccc(Cl)c(Cl)c3)c3ccccc32)cc1 (relative stereo) [8xv, Trans-N-[3-(3,4-dichlorophenyl)indan-1-yl]-4-methylbenzenesulfonamide] | –
16 | 4.05 ± 0.39 | 3.5 ± 0.4 | CC(C)CCN[C@@H]1C[C@@H](c2ccc(Cl)c(Cl)c2)c2ccccc21 (relative stereo) [8ii, Trans-[3-(3,4-dichlorophenyl)indan-1-yl]-(3-methylbutyl)amine hydrochloride] | –
